From patent publication US12397026B2, “Dietary supplement” (SOCIÉTÉ DES PRODUITS NESTLÉ S.A., priority 2015, dated 2025)

Tested on: probiotic bacteria preblend (Lactobacillus rhamnosus GG1 and Bifidobacterium lactis BB12)
Type: cell-based
Details: iron fortifying agent combined with probiotic bacteria
Description: For practical reasons (accuracy in weighed amount), the amounts have been multiplied by 5.
Five preparations containing various iron fortifying agents and probiotic bacteria, and a control composition containing pro biotic bacteria and no iron fortifying agent were tested, as follows:
For each preparation, the required amount of iron fortificant was weighed. The iron fortificant was mixed with the specified amount of diluent TS+, i.e., a reconstitution solution with Tryptone, Sodium Chloride and Antifoam at 37° C. having the following composition:
The mixture was agitated until complete homogenization of the solution (3 min).
The probiotic bacteria preblend (PP036) was added and the mixture agitated for 1 min.
Each of the six preparations were analysed in triplicate.
Bacterial viability was determined immediately after preparation by plating of serial dilutions and subsequent counting of colony forming units. […] The principle of the method is the following: • Samples containing probiotics are weighed, rehydrated in a diluent (TS+) and homogenized by stomaching. • Serial decimal dilutions are performed in the same diluent (TS+) • 1 mL of each appropriate dilution is transferred to Petri dishes and mixed with a specific agar (pour-plate method) • The inoculated solidified agar plates are incubated under specific conditions enabling colony formation by the target bacteria (selective enumeration) • Colonies are counted and results are calculated and expressed in colony forming units per gram of sample (CFU/g).

| Substance | Effect on viability of probiotic bacteria (in words) |
| --- | --- |
| ferric ammonium citrate | caused a significant loss of bacteria viability |
| ferric pyrophosphate | does not decrease bacterial viability |
| ferrous bisglycinate | caused a significant loss of bacteria viability |
| ferrous sulfate | caused a significant loss of bacteria viability |
